This is an account of results in patent US20250302743A1, “METHODS OF TREATING DERMATOLOGICAL CONDITIONS AND SYMPTOMS THEREOF” (KAMARI PHARMA LTD., priority 2022, published 2025).

One data set deals with DS-Nh mice. Briefly: DS-Nh mouse model, topical dosing (scratching behavior, skin histology). The format is in vivo. The text has this:
DS-Nh mice raised under conventional conditions spontaneously develop dermatitis and skin abnormalities characterized by hyperkeratosis, reduced basal keratinocytes proliferation, defective differentiation, and keratinization of skin appendages.
At the end of the study, the mice were sacrificed, and skin biopsies were paraffin-embedded, stained with hematoxylin and eosin (H&E) and assessed microscopically (FIG. 7).

The next data set relates to male C57BL/6J mice. Briefly: Acetone-ether-water (AEW)-induced pruritus model, oral dosing. The format is in vivo, mouse. The method, then: (§1) The efficacy of KM-001 was assessed in an acetone-ether-water (AEW)-induced pruritus model in male C57BL/6J mice, a model induced by daily treatment of an acetone/ether (1:1) mixture and water applied to the animal's cheek. KM-001 (10 mg/kg, 1 mg/kg, 0.1 mg/kg and 0.01 mg/kg) was administered orally to 20 mice. The amount of time spent scratching and the number of bouts during the 20 minutes were recorded by an observer. Blood and skin samples were collected at 0, 0.5 hr, 1 hr and 1.5 hr post dosing.

Data set [1] is described as follows: Plasma concentration in AEW pruritus study, oral dosing. As to conditions: mice, oral 0.1 mg/kg. The format is in vivo, mouse. The method, then:
as §1

The nature of data set [2]: Blood concentrations in minipig dermal toxicity study (13 weeks). It counts as in vivo. As to conditions: for AUC0-tlast / Cmax: MiniPig, 6 g/day. The method, then:
(§2) I: Blood concentrations of KM-001 were evaluated using a validated analytical method as part of the toxicity studies in minipigs and rats.

Data set [3] in a line: 28-day oral repeat dose toxicity study, systemic exposure. The format is in vivo, rat. The conditions noted are these: for AUC0-tlast / Cmax: Rat, oral. Here is the method:
as §2

The nature of data set [4]: Estimated human systemic exposure and safety margins (dose-linear extrapolation from minipig PK). The method, then: as §2
Data set [5] in a line: Saturated solubility, shake flask method, UPLC-UV. The conditions noted are these: for Saturated Solubility API: RT, 24 hours. It counts as physicochemical. The method, then:
Saturated solubility was determined using the shake flask method with excess API at room temperature (RT). It was assumed that equilibrium was attained after 24 hours, and excess solid was separated by ultrafiltration prior to dilution and quantification. Quantification of KM-001 for saturated solubility studies was performed using a qualified UPLC-UV analytical method.

The subject of a further data set is keratinocytes. The conditions noted are these: found in US 2002/0332697 A1, cited from earlier work.
The target of the next data set is TRPV3 (Homo sapiens, UniProt Q8NET8). As to conditions: read-out: IC50 (inhibit TRPV3); found in US 2002/0332697 A1; cited from earlier work.
Setting [6] is: 0.5% formulation, 2.25 mg/kg*day, Week 13.
[7] abbreviates: 1.0% formulation, 4.5 mg/kg*day, Week 13.

TRPV3, sequence (Q8NET8 whole entry, species assumed): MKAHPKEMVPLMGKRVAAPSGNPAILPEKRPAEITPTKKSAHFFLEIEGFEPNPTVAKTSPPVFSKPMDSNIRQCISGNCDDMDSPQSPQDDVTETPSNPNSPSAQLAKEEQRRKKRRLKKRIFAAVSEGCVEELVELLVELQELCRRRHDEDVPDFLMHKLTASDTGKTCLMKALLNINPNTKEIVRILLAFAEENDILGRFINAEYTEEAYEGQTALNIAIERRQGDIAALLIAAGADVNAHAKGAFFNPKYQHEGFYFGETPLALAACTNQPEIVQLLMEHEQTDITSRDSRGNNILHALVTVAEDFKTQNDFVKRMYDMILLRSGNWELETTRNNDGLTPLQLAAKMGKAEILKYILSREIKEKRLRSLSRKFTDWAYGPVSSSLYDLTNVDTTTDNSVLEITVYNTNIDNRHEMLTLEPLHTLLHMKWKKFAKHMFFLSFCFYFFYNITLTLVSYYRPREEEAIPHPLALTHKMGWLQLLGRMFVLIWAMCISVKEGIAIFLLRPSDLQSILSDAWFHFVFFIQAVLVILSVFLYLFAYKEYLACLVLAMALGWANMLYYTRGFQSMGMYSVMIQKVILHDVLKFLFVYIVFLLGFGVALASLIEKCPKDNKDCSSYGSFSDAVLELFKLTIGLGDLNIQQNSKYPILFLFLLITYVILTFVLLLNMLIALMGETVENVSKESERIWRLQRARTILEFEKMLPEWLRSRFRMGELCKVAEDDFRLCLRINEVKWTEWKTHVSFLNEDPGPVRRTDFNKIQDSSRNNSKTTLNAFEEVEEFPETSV

With `C=CC[C@@H]1/C=C(\C)C[C@H](C)C[C@H](OC)[C@H]2O[C@@](O)(C(=O)C(=O)N3CCCC[C@H]3C(=O)O[C@H](/C(C)=C/[C@@H]3CC[C@@H](O)[C@H](OC)C3)[C@H](C)[C@@H](O)CC1=O)[C@H](C)C[C@@H]2OC` [tacrolimus 0.1%, tacrolimus], the reduction in scratch in the data set with DS-Nh mice (day 14, twice daily topical treatment) was 20%. Besides, the “mice exhibiting normalization of skin pathology” value with DS-Nh mice (two weeks of treatment, H&E histology, partial normalization for tacrolimus) is given as 40 % of mice.
The term Cmax denotes the peak of the concentration-time curve. As a reminder, the AUC is the area under the concentration-time curve, a measure of exposure. Lower therefore signals less exposure. By NOAEL is commonly meant the highest dose or exposure tested at which no adverse effect was seen. For orientation: IC50 means the concentration at which inhibition is half-maximal. For the compound “(S)-2-(1,3-dimethyl-2-6-dioxo-2,3-1h-purin-7(6H)-N-(4-(3-Fluoro-4-2methylpyrrolidin-1-yl)phenyl)thiazol-2-yl)acetamide [KM-001]”, the scratching bouts entry with male C57BL/6J mice (oral 0.01 mg/kg) is “trended to decrease”; in the data set on male C57BL/6J mice (oral 0.1 mg/kg, p<0.01), “significantly decreased”. Also, the scratching time result in the data set with male C57BL/6J mice (oral 0.01 mg/kg) is on record as “trended to decrease”; in the data set with male C57BL/6J mice (oral 0.1 mg/kg, p<0.001) it was “significantly decreased”. Moreover, in data set [1], the “maximum plasma concentration (Cmax)” value is recorded as 1.34 ng/mL. Besides, the AUC0-tlast in [2] (0.1% formulation, 0.45 mg/kg*day, Week 13) is 16.6 ng·h/mL; in data set [2] (setting [6]) it was 73.7 ng·h/mL; in data set [2] (setting [7]), 159 ng·h/mL; in data set [3] (1 mg/kg*day, Day 28) it was 479 ng·h/mL; in data set [3] (5 mg/kg*day, Day 28) it was 4570 ng·h/mL; in data set [3] (10 mg/kg*day, Day 28), 8360 ng·h/mL. Also, the Cmax is 2.3 ng/mL in data set [2] (0.1% formulation, 0.45 mg/kg*day, Week 13, mean male and female); 5.3 ng/mL in data set [2] (setting [6]); 10.8 ng/mL in data set [2] (setting [7]); 97 ng/mL in [3] (1 mg/kg*day, Day 28, mean male and female); 525 ng/mL in [3] (5 mg/kg*day, Day 28); 968 ng/mL in [3] (10 mg/kg*day (NOAEL), Day 28). Further, the area under the curve (AUC) in data set [2] (minipigs, 4.5 mg KM-001/kg/day) is 159.1 ng·h/mL; in [3] (rat, 28-day oral repeat dose, at NOAEL of 10 mg/kg/day) it was 8357 ng·h/mL. The same compound returned an NOAEL in data set [3] (28-day oral repeat dose toxicity study in the rat) of 10 mg/kg/day. The entries for the “safety margin for AUC, rat vs estimated human exposure” value in data set [4] (0.3%) and in data set [4] (1%) were 836 fold and 261 fold, respectively. For the same compound, the “AUC, estimated human systemic exposure” value in data set [4] (0.3% cream) is “approx. 10 ng/mL*h”; in data set [4] (1% cream) it was around 32 ng·h/mL. In addition, the “safety margin for Cmax, rat vs estimated human exposure” value in data set [4] (1% cream-gel) is recorded as “approx. 242 fold”. The “Dose MiniPig API (safety factor)” value in data set [4] (Human dermal 0.3% formulation vs minipig dose) is recorded as 34; in data set [4] (Human dermal 1.0% formulation vs minipig dose), 11. In [5], the “solubility in triglycerides and fatty alcohols” value was “relatively soluble”. The “Saturated Solubility API” value in data set [5] (M1: Miglyol 812 N 33.3%, Arlamol E 62.5%, Phenoxy-2-ethanol 4.2%) was found to be 13.1 % w/w; in data set [5] (M2: Miglyol 812 N 8%, Arlamol E 15%, Macrol-82 77%), 0.7 % w/w; in [5] (M3: Miglyol 812 N 10%, Kollicream OD 10%, Macrol-82 75%, Kollicream OA 5%), 1.5 % w/w; in data set [5] (M6: Miglyol 812 N 20%, Arlamol E 16%, Kollicream OA 10%, Macrol-82 54%), 4.0 % w/w; in [5] (M10: Miglyol 812 N 20%, Crodamol IPM 21.85%, Kollicream OA 5%, Light Mineral Oil 53.15%), 1.6 % w/w; in data set [5] (M13: Miglyol 812 N 47.83%, Kollicream OD 52.17%), 13.0 % w/w. The “Saturated Solubility API” value in data set [5] (M14: Miglyol 812 N 45.83%, Kollicream OD 50%, Phenoxy-2-ethanol 4.17%) stood at 14.0 % w/w. Moreover, in the data set on keratinocytes, the “Ca^+2 flux in keratinocytes” value is listed as “significantly reduced”. Also, the differentiation markers entry with keratinocytes (keratinocytes) was “normalized”. The IC50 on TRPV3 is around 3 nM.
